From US10385107B2 (INDIANA UNIVERSITY RESEARCH AND TECHNOLOGY CORPORATION, priority 2014, dated 2019)
Entries after “also recorded” stand apart in the source; their conditions may differ. Values belong to the substance of their own block, whether it stands above or below them.

Columns and labels:
blood glucose [1] = assay: Insulin tolerance test in C57/Blk mice (MIU-30); format: in vivo; conditions: C57 black mice, through 8 hr
Source text: (generating “MIU-30c”). […] In FIG. 1B total blood glucose of MIU 30a and MIU 30c as compared to vehicle is reported as differential area under curve (AUC). […] These in vivo results are consistent with the in vitro analysis.

insulin receptor [2] = target: T1, insulin receptor (Homo sapiens, UniProt P06213); assay: Insulin receptor phosphorylation assay, receptor transfected HEK293 cells; format: cell-based; set-up: expressed in transfected cells; host or cells: HEK293; conditions: incubated in 20% plasma
insulin receptor [3] = target: T1, insulin receptor; assay: Insulin receptor competition binding assay (scintillation proximity); set-up: expressed in transfected cells; plasma membrane fragments; conditions: incubated in 20% plasma/PBS at 37° C.
[4] = Stability of Phe^B1-Insulin Prodrug
blood glucose [5] = assay: Comparative insulin tolerance for insulin prodrug analogs in mice; format: in vivo; conditions: for comparative insulin potency in vivo: mice, administered without pre-incubation
Source text: The prodrug derivative MIU-29: [B^1(Y16,L17,Y25)29a: A^1(aF19-dLys(Ac),NLeu)] comprises a 4-amino-phenylalnine substitution at position A19 wherein a dipeptide dLys(Ac),NLeu have been covalently linked at the 4-amino position of the A19 residue. […]
(§1) Acylation of the insulin prodrug analogs was investigated to determine if retention times in vivo could be enhanced. […] (providing time for prodrug conversion) relative to the non-acylated prodrug (see FIG. 2).

[6] = In vitro activity of prodrugs relative to time incubated ex vivo; conditions: 30% ACN/PBS, pH 7.4, 37° C.
Procedure: FIG. 2 is a graph depicting the in vitro activity of the acylated prodrug MIU 42: B^1(Y16,L17,Y25)29a: A^1(dLys(rE-C14),Sar-aF19) (wherein an amino acid of the dipeptide prodrug element is acylated, linked at the gamma position “rE” of a glutamic acid linker) relative to time incubated ex vivo in 30% ACN/PBS at pH 7.4 and 37° C.
as §1

T1 sequence (P06213 28-758 limits assumed): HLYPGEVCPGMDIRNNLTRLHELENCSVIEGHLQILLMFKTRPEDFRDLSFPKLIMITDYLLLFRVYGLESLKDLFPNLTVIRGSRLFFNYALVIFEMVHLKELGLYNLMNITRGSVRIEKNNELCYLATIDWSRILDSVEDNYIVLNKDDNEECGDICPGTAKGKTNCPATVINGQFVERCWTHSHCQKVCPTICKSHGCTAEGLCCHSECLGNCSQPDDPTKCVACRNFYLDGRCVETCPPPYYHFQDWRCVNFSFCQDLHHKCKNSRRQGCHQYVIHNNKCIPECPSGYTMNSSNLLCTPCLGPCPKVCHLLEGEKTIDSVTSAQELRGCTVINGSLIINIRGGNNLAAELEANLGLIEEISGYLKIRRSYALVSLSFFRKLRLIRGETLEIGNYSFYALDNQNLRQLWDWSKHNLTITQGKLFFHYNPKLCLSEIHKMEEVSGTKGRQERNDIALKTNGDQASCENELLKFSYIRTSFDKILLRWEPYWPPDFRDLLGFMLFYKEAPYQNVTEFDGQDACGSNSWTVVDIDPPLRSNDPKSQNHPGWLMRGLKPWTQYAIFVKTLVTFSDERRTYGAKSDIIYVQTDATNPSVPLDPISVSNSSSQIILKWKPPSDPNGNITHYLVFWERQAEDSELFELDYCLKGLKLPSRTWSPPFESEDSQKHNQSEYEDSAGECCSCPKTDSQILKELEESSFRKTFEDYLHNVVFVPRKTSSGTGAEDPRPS
T1 sequence (P06213 763-1382 partner limits assumed): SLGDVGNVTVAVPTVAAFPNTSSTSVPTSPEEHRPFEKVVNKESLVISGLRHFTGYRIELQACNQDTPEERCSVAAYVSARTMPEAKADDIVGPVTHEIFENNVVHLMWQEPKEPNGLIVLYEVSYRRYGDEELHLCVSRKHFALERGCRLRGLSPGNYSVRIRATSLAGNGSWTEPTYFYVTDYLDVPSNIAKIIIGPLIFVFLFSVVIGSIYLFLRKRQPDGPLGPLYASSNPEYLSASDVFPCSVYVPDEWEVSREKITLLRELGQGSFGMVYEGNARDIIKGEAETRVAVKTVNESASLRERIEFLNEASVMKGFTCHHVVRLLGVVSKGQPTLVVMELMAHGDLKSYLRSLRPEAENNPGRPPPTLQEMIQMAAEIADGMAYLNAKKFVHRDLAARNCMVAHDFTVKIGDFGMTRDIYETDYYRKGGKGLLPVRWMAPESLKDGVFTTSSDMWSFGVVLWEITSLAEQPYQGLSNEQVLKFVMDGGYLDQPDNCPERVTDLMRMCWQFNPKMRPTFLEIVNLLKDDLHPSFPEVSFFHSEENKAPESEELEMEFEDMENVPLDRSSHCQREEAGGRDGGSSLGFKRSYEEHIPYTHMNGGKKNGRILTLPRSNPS

% Activity of Insulin (phosphorylation) (insulin receptor [2]; 1 hr): 23.0% | % Activity of Insulin (phosphorylation) (insulin receptor [2]; 3 hr): 26.8% | % Activity of Insulin (phosphorylation) (insulin receptor [2]; 6 hr): 32.5% | % Activity of Insulin (phosphorylation) (insulin receptor [2]; 9 hr): 41.1% | % Activity of Insulin (phosphorylation) (insulin receptor [2]; […]): 43.2% | % Activity of Insulin (binding) (insulin receptor [3]; 0 hr): 34.44% | % Activity of Insulin (binding) (insulin receptor [3]; 9 hr): 100.09% | % Activity of Insulin (binding) (insulin receptor [3]; 95 hr): 115.42%
Substance: B^1(Y16,L17,Y25)29a: A^1(dLys(Ac),Sar-aF19) [MIU30]
blood glucose AUC vs vehicle (glucose lowering) (blood glucose [1]; 90 nmol/kg): little change in glucose | blood glucose AUC vs vehicle (glucose lowering) (blood glucose [1]; 270 nmol/kg): glucose lowering

Cleavage time [4]: > 240 h
Substance: Methyl dLys(C18) [Peptide 8]

Substance: [B^1(H5,10 Y16,L17,Y25, K29-C14)28a: A^1(N18,21, aF19NH2)] [MIU-46]
comparative insulin potency in vivo (blood glucose [5]): did not exhibit a desired in vivo potency or a basal profile

Substance: [B^1(Y16,L17,Y25)29a: A^1(aF19-dLys(Ac),NLeu)] [MIU-29]
ability to lower blood glucose compared to parent compound (blood glucose [5]; normal mice, prodrug incubated 24 hours ex vivo before administration): performed almost identically

Substance: [B^1(Y16,L17,Y25)29a: A^1(dLys(rE-C14),Sar-aF19)] [MIU 42]
comparative insulin potency in vivo (blood glucose [5]): not very potent relative to the non-prodrug parent compound | in vitro activity relative to time incubated ex vivo [6]: increases with time incubated ex vivo; also recorded: activity is restored

Cleavage time [4]: ~150 h
Substance: isobutyl dLys(C18) [Peptide 10]
